Values after ≈ are worked out from the molar mass of the structure shown. Read-outs that look alike come from different tables or passages of the source.
What was measured:
S. aureus ATCC25923 = test: MIC determination by microplate dilution, S. aureus human strain; type: cell-based, Staphylococcus aureus; conditions: Mueller-Hinton medium, 24 h, 37° C.; for MIC: Staphylococcus aureus, ATCC25923, Gram-positive
Description: (§1) 1) Preparation of the Preculture
(§2) A negative control (2 mL of sterile culture medium)
(§3) A positive control (1940 μL of culture medium+40 μL of DMSO+20 μL of bacterial suspension) from a thawed biological strain (the biological strains are stored at −80° C. in glycerol).
(§4) The tubes were incubated at 37° C. for 24 hours at 100 rpm.
(§5) The microorganisms were handled under a type L2 laboratory fume cupboard and, before any handling, a UV cycle was programmed and only sterile material was used. […] The chemical compounds to be tested were prepared in a DMSO/methanol mixture (50/50) at a concentration of 5 mg/mL.
(§6) 2) Preparation of the Microplate for the Determination of the Minimum Inhibitory Concentration (MIC)
(§7) After 24 hours of incubation, a measurement of the optical density was taken using a spectrophotometer at 600 nm, collecting 100 μL of the bacterial suspension diluted in 900 μL of the sterile culture medium. This test required the use of a 96-well plate and the required volume of the microbial suspension to be seeded was calculated for an OD corresponding to a value equal to 0.01 in each well. In this plate, the first line corresponded to the negative control (195 μL of sterile culture medium in each well), the second line to the positive control (seeded culture medium supplemented with 2% of DMSO), the third line was loaded twice with bacterial suspension, 8 μL of test product were placed in each well. Thereafter, a 0.5 cascade dilution was performed from this line.
(§8) The first column served as inhibition control. A sterile filter was then placed on the microplate, allowing the passage of gases but not of contaminants. The microplate was incubated at 37° C. under a humid atmosphere for 24 hours.
(§9) NB: The medium used is Mueller-Hinton (MH) medium for bacteria. All the tests were performed in duplicate.
(§10) 4) Reading of the Results
(§11) After incubation, the filter was replaced with a transparent film, and an OD reading was then taken in an iEMS plate spectrophotometer at 620 nm. Calculation of the minimum inhibitory concentration (MIC) was performed.

S. aureus (340) = test: MIC determination by microplate dilution, S. aureus animal strain; type: cell-based, Staphylococcus aureus; conditions: Gram-positive, Mueller-Hinton medium, 24 h, 37° C.; for MIC: Staphylococcus aureus
Description: as §1, §2, §3, §4, §5, §6, §7, §8, §9, §10, §11

S. intermedius (1051997) = test: MIC determination by microplate dilution, S. intermedius animal strain; type: cell-based, Staphylococcus intermedius; conditions: Gram-positive, Mueller-Hinton medium, 24 h, 37° C.; for MIC: Staphylococcus intermedius
Description: as §1, §2, §3, §4, §5, §6, §7, §8, §9, §10, §11

E. faecalis ATCC29212 = test: MIC determination by microplate dilution, E. faecalis human strain; type: cell-based, Enterococcus faecalis; conditions: Mueller-Hinton medium, 24 h, 37° C.; for MIC: Enterococcus faecalis, ATCC29212, Gram-positive
Description: as §1, §2, §3, §4, §5, §6, §7, §8, §9, §10, §11

E. coli ATCC28922 = test: MIC determination by microplate dilution, E. coli human strain; type: cell-based, Escherichia coli; conditions: Mueller-Hinton medium, 24 h, 37° C.; for MIC: Escherichia coli, ATCC28922, Gram-negative
Description: as §1, §2, §3, §4, §5, §6, §7, §8, §9, §10, §11

E. coli (1956) = test: MIC determination by microplate dilution, E. coli animal strain; type: cell-based, Escherichia coli; conditions: Gram-negative, Mueller-Hinton medium, 24 h, 37° C.; for MIC: Escherichia coli
Description: as §1, §2, §3, §4, §5, §6, §7, §8, §9, §10, §11

P. aeruginosa ATCC27853 = test: MIC determination by microplate dilution, P. aeruginosa human strain; type: cell-based, Pseudomonas aeruginosa; conditions: Mueller-Hinton medium, 24 h, 37° C.; for MIC: Pseudomonas aeruginosa, ATCC27853, Gram-negative
Description: as §1, §2, §3, §4, §5, §6, §7, §8, §9, §10, §11

P. aeruginosa (1051575) [1] = test: MIC determination by microplate dilution, P. aeruginosa animal strain; type: cell-based, Pseudomonas aeruginosa; conditions: Gram-negative, Mueller-Hinton medium, 24 h, 37° C.; for MIC: Pseudomonas aeruginosa
Description: as §1, §2, §3, §4, §5, §6, §7, §8, §9, §10, §11

CHO-K1 cells = test: WST1 cytotoxicity test on CHO-K1 cells; type: cell-based, Chinese hamster; conditions: for IC50: Cricetulus griseus
Description: Test WST1 was used to measure the cytotoxic activity of the products. This is a colorimetric test which makes it possible to measure the viability and the degree of cell proliferation. It is based on cleavage of the colorless tetrazolium salts WST-1 (4-[3-(4-iodophenyl)-2-(4-nitrophenyl)-2H-5-tetrazolio]-1,3-benzene disulfonate) with mitochondrial dehydrogenases to the yellow-colored formazan derivative, which may be quantified by spectrophotometry at 420-480 nm.
The WST1 test was performed on Chinese hamster ovary cells. The CHO-K1 cells (ATCC, USA) are kept in culture on McCoy's 5A medium supplemented with 10% fetal calf serum, 2 mM of L-glutamine and a mixture of penicillin-streptomycin (100 U/ml: 10 μg/mL). The culture is incubated at 37° C. under an atmosphere enriched in CO2 (5%), and subcultured every two days.
The cells are transferred into 96-well plates (25 000 cells/mL) in whole McCoy's 5A medium, and maintained for 24 hours at 37° C. under a humid atmosphere enriched in CO2 (5%). Increasing concentrations of test products are added to the wells in double tests and 8 growth controls containing the cells in the medium alone are included in each series of tests. After 24 hours at 37° C. (5% CO2), the culture medium is removed, the cells are rinsed in phosphate buffer (PBS) and 50 μL of PBS containing 10% of reagent WST1 are added to each well. After 20 minutes of incubation at 37° C., the results are read by spectrophotometry at 450 nm.
The results are expressed in dose-response relationships, modeled by nonlinear regression analysis using the TableCurve software. The 50% inhibitory concentration (IC50) represents the concentration of product that is capable of reducing the cell viability by 50%.

P. aeruginosa (1051575) [2] = test: Potentiation of the doxycycline activity at 2 μg/mL; type: cell-based, Pseudomonas aeruginosa; conditions: in combination with doxycycline 2 μg/mL; 24 h, 37°
C. albicans = test: Antifungal activity, cascade microdilution, C. albicans; type: cell-based, Candida albicans; conditions: 24 h; for IC50: Candida albicans, read-out: IC50 (μg/mL) C. albicans
[3] = CHO-K1, read-out: IC50 (μg/mL) CHO
[4] = compounds as hydrochloride in water, MH medium
[5] = CHO-K1, 24 h, read-out: IC50 (μg/mL) CHO

| Molecule | MIC (S. aureus ATCC25923) [mg/L] | MIC (S. aureus (340)) [mg/L] | MIC (S. intermedius (1051997)) [mg/L] | MIC (E. faecalis ATCC29212) [mg/L] | MIC (E. coli ATCC28922) [mg/L] | MIC (E. coli (1956)) [mg/L] | MIC (P. aeruginosa ATCC27853) [mg/L] | MIC (P. aeruginosa (1051575) [1]) [mg/L] | IC50 (CHO-K1 cells; [3]) [µg/mL] | MIC - P. aeruginosa (1051575): content of compound of formula (I) to restore the doxycycline activity (at 2 μg/mL) (P. aeruginosa (1051575) [2]) [mg/L] | IC50 (C. albicans) [µg/mL] | IC50 (CHO-K1 cells; [5]) [µg/mL] | other results |
| --- | --- | --- | --- | --- | --- | --- | --- | --- | --- | --- | --- | --- | --- |
| CC(C)OC(=O)CC[C@@H](C)[C@H]1CCC2C3CCC4C[C@@H](NCCNCCNCCNCCNCCN)CC[C@]4(C)C3C[C@H](O)[C@@]21C (stereo partly drawn) [(27), isopropyl 3β-(pentaethylenehexamine)deoxycholate] | 16 (≈ 24.7 µM) | > 130 | 16 (≈ 24.7 µM) | 32 (≈ 49.3 µM) | 32 (≈ 49.3 µM) | 65 (≈ 100 µM) | 65 (≈ 100 µM) | 65 (≈ 100 µM) | 110 (≈ 169 µM) | 8 | 4 (≈ 6.16 µM) |  |  |
| CC(C)OC(=O)CC[C@@H](C)[C@H]1CCC2C3C(C[C@H](O)[C@@]21C)[C@@]1(C)CC[C@H](NCCNCCNCCNCCNCCN)CC1C[C@H]3O (stereo partly drawn) [(21), isopropyl 3β-(pentaethylenehexamine)cholate] | 33 (≈ 49.6 µM) | 33 (≈ 49.6 µM) | 16 (≈ 24.1 µM) | 33 (≈ 49.6 µM) | 33 (≈ 49.6 µM) | 66 (≈ 99.2 µM) | 66 (≈ 99.2 µM) | 66 (≈ 99.2 µM) |  |  |  |  | IC50 (CHO-K1 cells; CHO-K1, CHO (Example 7), read-out: IC50 (μg/mL) CHO): 105 µg/mL (≈ 158 µM); IC50 (C. albicans; [4]): 66 µg/mL (≈ 99.2 µM) |
| COC(=O)CC[C@@H](C)[C@H]1CCC2C3CCC4C[C@@H](NCCCN(CCCN)CCCN)CC[C@]4(C)C3C[C@H](O)[C@@]21C (stereo partly drawn) [(32), methyl 3β-(tris(3-aminopropyl)amine)deoxycholate] | 4 (≈ 6.93 µM) | 7 (≈ 12.1 µM) | 7 (≈ 12.1 µM) | 14 (≈ 24.3 µM) | 7 (≈ 12.1 µM) | 30 (≈ 52 µM) | 14 (≈ 24.3 µM) | 7 (≈ 12.1 µM) | 30 (≈ 52 µM) | 4 | 2 (≈ 3.47 µM) | 30 (≈ 52 µM) |  |
| methyl 3β-(bis(3-aminopropyl)methylamine)ursodeoxycholate [(53)] |  |  |  |  |  |  |  |  |  | 7 |  |  | MIC S. aureus Human ATCC25923 (S. aureus ATCC25923; Gram-positive): 27 mg/L; MIC S. aureus Animal (340) (S. aureus (340)): 27 mg/L; MIC S. intermedius Animal (1051997) (S. intermedius (1051997)): 7 mg/L; MIC E. faecalis Human ATCC29212 (E. faecalis ATCC29212; Gram-positive): 55 mg/L; MIC E. coli Human ATCC28922 (E. coli ATCC28922; Gram-negative): 55 mg/L; MIC E. coli Animal (1956) (E. coli (1956)): 55 mg/L; MIC P. aeruginosa Human ATCC27853 (P. aeruginosa ATCC27853; Gram-negative): 55 mg/L; MIC P. aeruginosa Animal (1051575) (P. aeruginosa (1051575) [1]): 55 mg/L; IC50 (μg/mL) CHO (CHO-K1 cells; CHO (Example 7)): 50 µg/mL; IC50 (μg/mL) CHO (CHO-K1 cells; Table III, WST1, CHO-K1 cells, 24 h, concentration reducing cell viability by 50%): 50 µg/mL; IC50 (μg/mL) C. albicans (C. albicans; [4]): 3 µg/mL |
| CC(C)OC(=O)CC[C@@H](C)[C@H]1CCC2C3CCC4C[C@@H](NCCCN(CCCN)CCCN)CC[C@]4(C)C3C[C@H](O)[C@@]21C (stereo partly drawn) [(28), isopropyl 3β-(tris(3-aminopropyl)amine)deoxycholate] | 15 (≈ 24.8 µM) | 15 (≈ 24.8 µM) | 8 (≈ 13.2 µM) | 30 (≈ 49.6 µM) | 15 (≈ 24.8 µM) | 30 (≈ 49.6 µM) | 30 (≈ 49.6 µM) | 30 (≈ 49.6 µM) |  | 2 |  | 85 (≈ 141 µM) |  |
